Source: publication PMC6790247 (Journal of Insect Science, 2019)

Assays:
Assay type in all cases: biochemical
nlGSTE [1] = molecular target: T1, nlGSTE (Nilaparvata lugens, UniProt J9Q4G5, F107A); assay: spectrophotometry at […] nm, double-reciprocal plot; details: read-out: F107A; 5 mM GSH, 20 mM Tris-HCl pH 8.0, 30 °C
T1 sequence (J9Q4G5 1-217 F107A): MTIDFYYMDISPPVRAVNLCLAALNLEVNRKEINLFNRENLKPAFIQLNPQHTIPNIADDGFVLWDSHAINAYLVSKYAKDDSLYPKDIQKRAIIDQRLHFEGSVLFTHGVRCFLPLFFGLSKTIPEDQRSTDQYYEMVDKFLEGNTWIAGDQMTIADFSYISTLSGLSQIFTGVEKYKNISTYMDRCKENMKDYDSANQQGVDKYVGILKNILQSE

nlGSTE [2] = molecular target: T2, nlGSTE (Nilaparvata lugens, UniProt J9Q4G5); assay: spectrophotometry at […] nm, double-reciprocal plot; details: read-out: WT; 5 mM GSH, 20 mM Tris-HCl pH 8.0, 30 °C
T2 sequence (J9Q4G5 1-217): T1 sequence (J9Q4G5 1-217 F107A)

nlGSTE [3] = molecular target: T3, nlGSTE (Nilaparvata lugens, UniProt J9Q4G5, F119A); assay: spectrophotometry at […] nm, double-reciprocal plot; details: read-out: F119A; 5 mM GSH, 20 mM Tris-HCl pH 8.0, 30 °C
T3 sequence (J9Q4G5 1-217 F119A): T1 sequence (J9Q4G5 1-217 F107A)

nlGSTE [4] = molecular target: T4, nlGSTE (Nilaparvata lugens, UniProt J9Q4G5, R112A); assay: spectrophotometry at […] nm, double-reciprocal plot; details: read-out: R112A; 5 mM GSH, 20 mM Tris-HCl pH 8.0, 30 °C
T4 sequence (J9Q4G5 1-217 R112A): T1 sequence (J9Q4G5 1-217 F107A)

nlGSTE [5] = molecular target: T5, nlGSTE (Nilaparvata lugens, UniProt J9Q4G5, F118L); assay: spectrophotometry at […] nm, double-reciprocal plot; details: read-out: F118L; 5 mM GSH, 20 mM Tris-HCl pH 8.0, 30 °C
T5 sequence (J9Q4G5 1-217 F118L): T1 sequence (J9Q4G5 1-217 F107A)

nlGSTE [6] = molecular target: T2, nlGSTE; assay: inhibition of CDNB conjugation, spectrophotometry; details: substrates CDNB and GSH; several inhibitor concentrations
nlGSTE [7] = molecular target: T2, nlGSTE; assay: inhibition of CDNB conjugation, spectrophotometry; details: read-out: % remaining activity at 0.1 mM

## O=[N+]([O-])c1ccc(Cl)c([N+](=O)[O-])c1 [CDNB, 1-chloro-2,4-dinitrobenzene]
nlGSTE [1]
  Km: 3.1 ± 0.367 mM
nlGSTE [2]
  Km: 2.1 ± 0.165 mM
nlGSTE [3]
  Km: 5 ± 0.575 mM
nlGSTE [4]
  Km: 8.7 ± 0.666 mM
nlGSTE [5]
  Km: 4.2 ± 0.865 mM

## CCOP(=S)(OCC)Oc1cc(C)nc(C(C)C)n1 [diazinon]
nlGSTE [6]
  remaining activity: nlGSTE activity was affected by permethrin, bendiocarb, diazinon, and chlorfenapyr

## CCOCn1c(-c2ccc(Cl)cc2)c(C#N)c(Br)c1C(F)(F)F [chlorfenapyr]
nlGSTE [7]
  remaining activity at 100 µM: 84%

## CNC(=O)Oc1cccc2c1OC(C)(C)O2 [bendiocarb]
nlGSTE [7]
  remaining activity at 100 µM: 36%

## CC1(C)C(C=C(Cl)Cl)C1C(=O)OCc1cccc(Oc2ccccc2)c1 (stereo not drawn) [permethrin]
nlGSTE [6]
  remaining activity: nlGSTE activity was affected by permethrin, bendiocarb, diazinon, and chlorfenapyr
